Experimental findings from patent publication US9181183B2, “Prostaglandin D synthase inhibitory piperidine compounds” (Taiho Pharmaceutical Co., Ltd., priority 2010, dated 2015) are described below.

Sequence of human H-PGDS (O60760 whole entry): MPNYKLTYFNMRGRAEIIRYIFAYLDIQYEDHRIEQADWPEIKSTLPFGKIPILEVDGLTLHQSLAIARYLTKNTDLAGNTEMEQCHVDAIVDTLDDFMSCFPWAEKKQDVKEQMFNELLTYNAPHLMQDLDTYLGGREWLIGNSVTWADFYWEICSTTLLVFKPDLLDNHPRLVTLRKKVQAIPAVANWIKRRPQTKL

The target in the first assay is human H-PGDS (Homo sapiens, UniProt O60760). Briefly: Hematopoietic prostaglandin D synthase (H-PGDS) inhibiting action, [14C]PGH2 to PGD2 conversion, TLC radioassay. It counts as biochemical. The following applies: compound 0.1 μM; inhibition rate relative to solvent control group; [14C] prostaglandin H2 10 μM, 25° C. How it is done:
The test was carried out according to the method of Urade, Y. et al. (J. Biol. Chem., 262, 3820-3825, (1987)). More specifically, a reaction mixture (49 μL) containing 100 mM Tris-HCl (pH 8.0), 1 mM reduced form glutathione, 0.1 mg/mL γ-globulin, human H-PGDS (q.s.), and a compound (0.1 μM) was preincubated at 25° C. for 5 minutes. A DMSO solution (final concentration: 1%) was added to the solvent control group. Subsequently, 1 μL of [^14C] prostaglandin H2 (final concentration: 10 μM) was added to start the reaction. One minute after the start of the reaction, 250 μL of a reaction stopper solution (diethylether/methanol/1M citric acid (30/4/1)) cooled with ice was added to stop the reaction. After the reaction was stopped, 50 μL of the upper layer portion (organic solvent phase) was applied to a TLC plate and developed at −20° C. for 45 minutes (developing solvent: diethylether/methanol/acetic acid (90/2/1)). After the TLC plate was dried and exposed to an imaging plate for 1 to 24 hours, the radioactivity corresponding to prostaglandin D2 (PGD2) was analyzed using an image analyzer (produced by Fujifilm Corporation). The area (%) occupied by the PGD2 band per lane and the inhibition rate (%) of each Example compound at 0.1 μM relative to the control group in each experiment were calculated.
For the molecule “N-(4-(4-(morpholin-1-yl-carbonyl)piperidin-1-yl)phenyl)-2-(4-(pyridin-2-ylmethylene)piperidine-1-carboxamido)thiazole-5-carboxamide [Example 15]”, the “H-PGDS inh. (% at 0.1 μM)” value is recorded as 68.6%.

Take “Phenyl 4-(4-(2,5-difluorobenzylidene)piperidine-1-carboxamido) piperidine-1-carboxylate [Example 39]”: the “H-PGDS inh. (% at 0.1 μM)” value is 62.9%.

Staying with this assay, now noted: compound 0.1 μM; inhibition rate relative to solvent control group; [14C] prostaglandin H2 10 μM, 25° C.; read-out: H-PGDS inh. (% at 0.1 μM).
For `CC(C)C(=O)Nc1ccc(NC(=O)N2CCC(=Cc3cc(F)ccc3F)CC2)cc1` [Example 77, 4-(2,5-difluorobenzylidene)-N-(4-isobutyramidophenyl)piperidine-1-carboxamide], the inhibition at 0.1 µM came to 68.1%. `O=C(Nc1nc2ccc(-c3ccncc3)cc2s1)N1CCC(=Cc2ccccn2)CC1` [Example 5, N-(6-(pyridin-4-yl)-benzo[d]thiazol-2-yl)-4-(pyridin-2-ylmethylene)-piperidine-1-carboxamide]: the inhibition at 0.1 µM was found to be 77.8%. Regarding `O=C(Nc1ccc(NC(=O)N2CCC(=Cc3cc(F)ccc3F)CC2)cn1)c1ccccn1` [Example 79, N-(5-(4-(2,5-difluorobenzylidene)piperidine-1-carboxamido)pyridin-2-yl)picolinamide], the inhibition at 0.1 µM stood at 56.8%.

On to `CS(=O)(=O)NC(=O)c1ccc(-c2ccc(NC(=O)N3CCC(=Cc4ccccn4)CC3)cn2)cc1` [Example 32, N-(6-(4-(methylsulfonylcarbamoyl)phenyl)pyridin-3-yl)-4-(pyridin-2-ylmethylene)piperidine-1-carboxamide], for which the inhibition at 0.1 µM came to 76.1%. Consider `O=C(NC1CCN(CC(F)F)CC1)N1CCC(=Cc2cc(F)ccc2F)CC1` [Example 44, 4-(2,5-difluorobenzylidene)-N-(1-(2,2-difluoroethyl)piperidin-4-yl)piperidine-1-carboxamide], for which the inhibition at 0.1 µM was determined as 81%. Regarding `O=C(Nc1ccc2nc(NC(=O)N3CCC(=Cc4ccccn4)CC3)sc2c1)N1CCOCC1` [Example 11, N-(2-(4-(pyridin-2-ylmethylene)piperidine-1-carboxamido)benzo[d]thiazol-6-yl)morpholine-4-carboxamide], the inhibition at 0.1 µM was 52.4%. Take `O=C(Nc1ccon1)N1CCC(NC(=O)N2CCC(=Cc3cc(F)ccc3F)CC2)CC1` [Example 67, 4-(2,5-difluorobenzylidene)-N-(1-(isoxazol-3-ylcarbamoyl)piperidin-4-yl)piperidine-1-carboxamide]: the inhibition at 0.1 µM came out at 51.7%. As to `COc1ccc(CN2CCC(NC(=O)N3CCC(=Cc4cc(F)ccc4F)CC3)CC2)cc1Cl` [Example 36, N-(1-(3-chloro-4-methoxybenzyl)piperidin-4-yl)-4-(2,5-difluorobenzylidene)piperidine-1-carboxamide], the inhibition at 0.1 µM worked out at 58.3%. Regarding `Cc1noc(C)c1-c1ccc2nc(NC(=O)N3CCC(=Cc4ccccn4)CC3)sc2c1` [Example 4, N-(6-(3,5-dimethylisoxazol-4-yl)-benzo[d]thiazol-2-yl)-4-(pyridin-2-ylmethylene)-piperidine-1-carboxamide], the inhibition at 0.1 µM worked out at 62.9%. For `CN(C)C(=O)c1ccc(-c2ccc(NC(=O)N3CCC(=Cc4ccccn4)CC3)cn2)cc1` [Example 31, N-(6-(4-(dimethylcarbamoyl)phenyl)pyridin-3-yl)-4-(pyridin-2-ylmethylene)piperidine-1-carboxamide], the inhibition at 0.1 µM was 52.9%. Still for that read-out and setting: with `O=C(O)c1ccc(-c2cnc(NC(=O)N3CCC(=Cc4ccccn4)CC3)s2)cc1` [Example 20, 4-(2-(4-(pyridin-2-ylmethylene)piperidine-1-carboxamido)thiazol-5-yl)benzoic acid] the figure was 61.4%.

Consider `O=C(NC1CCN(C(=O)C2CCCCC2)CC1)N1CCC(=Cc2cc(F)ccc2F)CC1` [Example 49, N-(1-(cyclohexanecarbonyl)piperidin-4-yl)-4-(2,5-difluorobenzylidene)piperidine-1-carboxamide], for which the inhibition at 0.1 µM was determined as 39.6%. On the same count and under the same terms, under `COC(=O)c1ccc(N2CCC(NC(=O)N3CCC(=Cc4cc(F)ccc4F)CC3)CC2)cc1` [Example 41, Methyl 4-(4-(4-(2,5-difluorobenzylidene)piperidine-1-carboxamido)piperidin-1-yl)benzoate] stands 59%; under `Cc1cccnc1C(=O)N1CCC(NC(=O)N2CCC(=Cc3cc(F)ccc3F)CC2)CC1` [Example 62, 4-(2,5-difluorobenzylidene)-N-(1-(3-methylpicolinoyl)piperidin-4-yl)piperidine-1-carboxamide], 54.2%.

Regarding `Cn1cccc1C(=O)N1CCC(NC(=O)N2CCC(=Cc3cc(F)ccc3F)CC2)CC1` [Example 55, 4-(2,5-difluorobenzylidene)-N-(1-(1-methyl-1H-pyrrole-2-carbonyl)piperidin-4-yl)piperidine-1-carboxamide], the inhibition at 0.1 µM stood at 70.9%. The same measure, in the same setting: under `COc1ncccc1-c1ccc2nc(NC(=O)N3CCC(=Cc4ccccn4)CC3)sc2c1` [Example 9, N-(6-(2-methoxypyridin-3-yl)-benzo[d]thiazol-2-yl)-4-(pyridin-2-ylmethylene)-piperidine-1-carboxamide] stands 76.6%.

For `O=C(Nc1cnc2ccccc2c1)N1CCC(=Cc2cc(F)ccc2F)CC1` [Example 42, 4-(2,5-difluorobenzylidene)-N-(quinolin-3-yl)piperidine-1-carboxamide], the inhibition at 0.1 µM came to 61.4%. For `O=C(NC1CCN(C(=O)C2CCCC2)CC1)N1CCC(=Cc2cc(F)ccc2F)CC1` [Example 53, N-(1-(cyclopentanecarbonyl)piperidin-4-yl)-4-(2,5-difluorobenzylidene)piperidine-1-carboxamide], the inhibition at 0.1 µM came to 69%. For the molecule `O=C(Nc1nc2ccc(-c3cccs3)cc2s1)N1CCC(=Cc2ccccn2)CC1` [Example 8, N-(6-(thiophen-2-yl)-benzo[d]thiazol-2-yl)-4-(pyridin-2-ylmethylene)-piperidine-1-carboxamide], the inhibition at 0.1 µM was determined as 80%.

Regarding `COC(=O)c1ccccc1CNC(=O)N1CCC(=Cc2cc(F)ccc2F)CC1` [Example 78, Methyl 2-((4-(2,5-difluorobenzylidene)piperidine-1-carboxamido)methyl)benzoate], the inhibition at 0.1 µM was 48.3%. With `O=C(Nc1ncc(C(=O)N2CCCCC2)s1)N1CCC(=Cc2ccccn2)CC1` [Example 17, N-(5-(piperidin-1-yl-carbonyl)thiazol-2-yl)-4-(pyridin-2-ylmethylene)piperidine-1-carboxamide], the inhibition at 0.1 µM was determined as 65%. For the molecule `CC(C)C(=O)N1CCC(NC(=O)N2CCC(=Cc3cc(F)ccc3F)CC2)CC1` [Example 48, 4-(2,5-difluorobenzylidene)-N-(1-isobutyrylpiperidin-4-yl)piperidine-1-carboxamide], the inhibition at 0.1 µM came out at 65.7%.

With `Cc1nccn1Cc1cnc(NC(=O)N2CCC(=Cc3cc(F)ccc3F)CC2)s1` [Example 82, 4-(2,5-difluorobenzylidene)-N-(5-((2-methyl-1H-imidazol-1-yl)methyl)thiazol-2-yl)piperidine-1-carboxamide], the inhibition at 0.1 µM stood at 82.7%.

As to `O=C(Nc1nccs1)c1ccc(-c2cnc(NC(=O)N3CCC(=Cc4ccccn4)CC3)s2)cc1` [Example 22, 4-(pyridin-2-ylmethylene)-N-(5-(4-(thiazol-2-ylcarbamoyl)phenyl)thiazol-2-yl)piperidine-1-carboxamide], the inhibition at 0.1 µM is 66.5%. On to `O=C(Nc1nccs1)c1ccc(-c2ccc(NC(=O)N3CCC(=Cc4ccccn4)CC3)cn2)cc1` [Example 29, 4-(pyridin-2-ylmethylene)-N-(6-(4-(thiazol-2-ylcarbamoyl)phenyl)pyridin-3-yl)piperidine-1-carboxamide], for which the inhibition at 0.1 µM is 78.8%. Regarding `O=C(Nc1ccccc1)N1CCC(NC(=O)N2CCC(=Cc3cc(F)ccc3F)CC2)CC1` [Example 56, 4-(2,5-difluorobenzylidene)-N-(1-(phenylcarbamoyl)piperidin-4-yl)piperidine-1-carboxamide], the inhibition at 0.1 µM was 59.3%. For `Cc1ccnc(C(=O)N2CCC(NC(=O)N3CCC(=Cc4cc(F)ccc4F)CC3)CC2)c1` [Example 63, 4-(2,5-difluorobenzylidene)-N-(1-(4-methylpicolinoyl)piperidin-4-yl)piperidine-1-carboxamide], the inhibition at 0.1 µM amounted to 64.7%. As for `O=C(NC1CCN(C(=O)c2cccs2)CC1)N1CCC(=Cc2cc(F)ccc2F)CC1` [Example 54, 4-(2,5-difluorobenzylidene)-N-(1-(thiophene-2-carbonyl)piperidin-4-yl)piperidine-1-carboxamide], the inhibition at 0.1 µM was 85.9%. On to `N#Cc1cccc(CN2CCC(NC(=O)N3CCC(=Cc4cc(F)ccc4F)CC3)CC2)c1` [Example 37, N-(1-(3-cyanobenzyl)piperidin-4-yl)-4-(2,5-difluorobenzylidene)piperidine-1-carboxamide], for which the inhibition at 0.1 µM stood at 64.8%. Still for that read-out and setting: under `O=C(Nc1nc2ccc(-c3cncnc3)cc2s1)N1CCC(=Cc2ccccn2)CC1` [Example 6, N-(6-(pyrimidin-5-yl)-benzo[d]thiazol-2-yl)-4-(pyridin-2-ylmethylene)-piperidine-1-carboxamide] stands 78.8%.
